For two compounds, Ki results are on record in US12559529B2, “NPY2 receptor agonists” (Boehringer Ingelheim International GmbH, priority 2019, dated 2026).

In the test the target is T1, Human Neuropeptide Y2 Receptor (Homo sapiens, UniProt P49146).
T1 construct: purchased CHEMICON HTS066M
T1 sequence (P49146 1-381): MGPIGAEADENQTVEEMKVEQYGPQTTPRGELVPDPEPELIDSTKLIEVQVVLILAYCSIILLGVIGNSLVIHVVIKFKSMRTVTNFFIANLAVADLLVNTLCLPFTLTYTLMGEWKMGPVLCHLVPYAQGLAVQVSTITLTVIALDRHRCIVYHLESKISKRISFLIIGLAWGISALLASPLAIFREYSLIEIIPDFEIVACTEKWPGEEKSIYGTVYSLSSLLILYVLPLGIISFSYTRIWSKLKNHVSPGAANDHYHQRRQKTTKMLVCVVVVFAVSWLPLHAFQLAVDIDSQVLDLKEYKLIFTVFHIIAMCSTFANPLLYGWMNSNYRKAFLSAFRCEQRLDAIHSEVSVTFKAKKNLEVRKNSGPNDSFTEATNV
The test can be described thus: Radioligand binding competition assay (RLB). As to conditions: Table 3; human 125I-PYY (1-36) 0.02 nM, Y2 receptor membranes; read-out: Ki. In a few lines:
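Competition binding on human Y2 receptor membranes, 0.5 μg protein/well, in 50 mM HEPES, 5 mM MgCl2, 1 mM CaCl2, pH 7.4, 0.2% ovalbumin; peptides diluted from 1 mM DMSO stocks.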

As to `CC(C)CC(=O)N[C@@H](C)C(=O)N1CCC[C@H]1C(=O)N[C@@H](CCC(=O)O)C(=O)N[C@@H](CCCCNC(=O)COCCOCCNC(=O)COCCOCCNC(=O)CC[C@H](NC(=O)CCCCCCCCCCCCCCCCC(=O)O)C(=O)O)C(=O)N[C@@H](C)C(=O)N[C@@H](CCC(=O)O)C(=O)N[C@@H](CCC(=O)O)C(=O)N[C@@H](CC(=O)O)C(=O)N[C@@H](C)C(=O)N[C@@H](CCC(=O)O)C(=O)N1CCC[C@H]1C(=O)N[C@@H](CCC(=O)O)C(=O)N[C@@H](CCC(=O)O)C(=O)N[C@@H](CC(C)C)C(=O)N[C@@H](CCC(N)=O)C(=O)N[C@@H](CCCNC(=N)N)C(=O)N[C@@H](Cc1ccc(O)cc1)C(=O)N[C@@H](Cc1ccc(O)cc1)C(=O)N[C@H](C(=O)N[C@@H](CO)C(=O)N[C@@H](CC(C)C)C(=O)N[C@@H](CCCNC(=N)N)C(=O)N[C@@H](Cc1c[nH]cn1)C(=O)N[C@@H](Cc1ccc(O)cc1)C(=O)N[C@@H](Cc1ccc(O)cc1)C(=O)N[C@@H](CC(N)=O)C(=O)N[C@@H](Cc1c[nH]c2ccccc12)C(=O)N[C@@H](CC(C)C)C(=O)N[C@H](C(=O)N[C@@H](CCCNC(=N)N)C(=O)N[C@@H](CCC(N)=O)C(=O)N[C@@H](CCCNC(=N)N)C(=O)N[C@@H](Cc1ccc(O)cc1)C(N)=O)[C@@H](C)O)C(C)C` [Compound 36, N{alpha-4}-(3-methylbutanoyl)-N{epsilon-7}-[2-(2-{2-[2-(2-{2-[(4S)-4-carboxy-4-(17-carboxyheptadecanamido)butanamido]ethoxy}ethoxy)acetamido]ethoxy}ethoxy)acetamido]-[4A,7K,8A,9E,13E,18Q,22V,28Y,30W,31L]hPYY (4-36)], the Ki was found to be 10.6 nM.

With `CC(C)CC(=O)N[C@@H](C)C(=O)N1CCC[C@H]1C(=O)N[C@@H](CCC(=O)O)C(=O)N[C@@H](CCCCNC(=O)COCCOCCNC(=O)COCCOCCNC(=O)CC[C@H](NC(=O)CCCCCCCCCCCCCCCCC(=O)O)C(=O)O)C(=O)N1CCC[C@H]1C(=O)N[C@@H](CCC(=O)O)C(=O)N[C@@H](CCC(=O)O)C(=O)N[C@@H](CC(=O)O)C(=O)N[C@@H](C)C(=O)N[C@@H](CO)C(=O)N1CCC[C@H]1C(=O)N[C@@H](CCC(=O)O)C(=O)N[C@@H](CCC(=O)O)C(=O)N[C@H](C(=O)N[C@@H](CCC(N)=O)C(=O)N[C@@H](CCCNC(=N)N)C(=O)N[C@@H](Cc1ccc(O)cc1)C(=O)N[C@@H](CCC(=O)O)C(=O)N[C@H](C(=O)N[C@@H](CO)C(=O)N[C@@H](CC(C)C)C(=O)N[C@@H](CCCNC(=N)N)C(=O)N[C@@H](Cc1c[nH]cn1)C(=O)N[C@@H](Cc1ccc(O)cc1)C(=O)N[C@@H](Cc1ccc(O)cc1)C(=O)N[C@@H](CC(N)=O)C(=O)N[C@@H](Cc1c[nH]c2ccccc12)C(=O)N[C@@H](CC(C)C)C(=O)N[C@H](C(=O)N[C@@H](CCCNC(=N)N)C(=O)N[C@@H](CCC(N)=O)C(=O)N[C@@H](CCCNC(=N)N)C(=O)N[C@@H](Cc1ccc(O)cc1)C(N)=O)[C@@H](C)O)C(C)C)[C@@H](C)O` [Compound 37, N{alpha-4}-(3-methylbutanoyl)-N{epsilon-7}-[2-(2-{2-[2-(2-{2-[(4S)-4-carboxy-4-(17-carboxyheptadecanamido)butanamido]ethoxy}ethoxy)acetamido]ethoxy}ethoxy)acetamido]-[4A,7K,9E,17T,18Q,21E,22V,28Y,30W,31L]hPYY (4-36)], the Ki came to 4.85 nM.
